# Paper PMC6413952, “Discovery of ABBV-4083, a novel analog of Tylosin A that has potent anti-Wolbachia and anti-filarial activity” (PLoS Neglected Tropical Diseases, 2019)
# Columns and labels:
# [1] = tested on: Wolbachia pipientis in Aedes albopictus C6/36 (wAlbB) insect cells; assay: A·WOL Wolbachia-infected Aedes albopictus (C6/36 wAlbB) 7-day cell-based assay, high content imaging; conditions: for activity against Wolbachia: commercially available 16-membered macrolides
# Source text: Compounds were screened for anti-Wolbachia activity in vitro in the A·WOL-validated Wolbachia-infected Aedes albopictus (C6/36 wAlbB) 7-day cell-based assay which utilizes a 384-well format assay with high content imaging (HCI) (Operetta) as described previously.
# We began our work by selecting a diverse and representative sample of the AbbVie antibiotics collection (129 compounds) for single-point testing against Wolbachia pipientis in an insect cell line. […] While TylA has a long history of use in multiple animal species, it has never been studied in humans; and its activity against Wolbachia has not previously been reported.
# [2] = Rat oral pharmacokinetic study (plasma AUC, C8hr); assay type: in vivo, Sprague-Dawley rats; conditions: for C*8hr / C*8hr/ EC50 / AUC*/EC50: PO rats; for AUC* parent / AUC* TylA (metabolite): PO, Sprague-Dawley rats; for C*8hr/ EC50: potency-weighted 8-hr drug level; for AUC*/EC50: potency-weighted AUC; for AUC* TylA (metabolite): primary metabolite TylA; for improvement in plasma drug levels (AUC) over TylA / drug levels relative to 2'-OH partners 5c and 5d: rats
# Description: PO doses were administrated by oral gavage, IP doses by intraperitoneal injection to BALB/c mice or Sprague-Dawley rats (Charles River Laboratories, USA). Serial blood samples collected into EDTA anticoagulant for plasma concentration analysis were obtained from each animal after dosing. EDTA preserved plasma samples were extracted by protein precipitation with acetonitrile fortified with internal standards. The supernatant was injected into an HPLC-MS/MS system for separation and quantitation. Detection was accomplished using a triple quadrupole mass spectrometer operated either in electrospray or atmospheric chemical ionization (APCI) mode. The area under the plasma concentration-time curve (AUC) was calculated using the linear trapezoidal rule.
# [3] = Mouse pharmacokinetic study (plasma levels, IP or PO); assay type: in vivo, BALB/c mice
# Description: PO doses were administrated by oral gavage, IP doses by intraperitoneal injection to BALB/c mice or Sprague-Dawley rats (Charles River Laboratories, USA). Serial blood samples collected into EDTA anticoagulant for plasma concentration analysis were obtained from each animal after dosing. EDTA preserved plasma samples were extracted by protein precipitation with acetonitrile fortified with internal standards. The supernatant was injected into an HPLC-MS/MS system for separation and quantitation. Detection was accomplished using a triple quadrupole mass spectrometer operated either in electrospray or atmospheric chemical ionization (APCI) mode. The area under the plasma concentration-time curve (AUC) was calculated using the linear trapezoidal rule. […] Plasma levels of TylA in BALB/c mice following IP or PO dosing (100 mg/kg).
# MDR-MDCK monolayer = assay type: in vitro ADME, canine; conditions: MDCK-MDR1
# Source text: Drug levels in the IP arm of this study were >30-fold higher than those achieved when the drug is given PO. […] Therefore, improving drug absorption by increasing permeability became a primary goal for our lead-optimization studies.
# Litomosoides sigmodontis = Litomosoides sigmodontis larval mouse model (worm length); assay type: in vivo, BALB/c mice; conditions: 35 days post-infection
# Description: As described previously, female BALB/c mice or female jirds were infected at 6–8 weeks of age with L. sigmodontis larvae through the bites of Ornithonyssus bacoti mites. […] One day post infection, mice were dosed IP or PO with TylA (Sigma Aldrich, 200 mg/kg BID x 7 days), doxycycline hyclate (Sigma-Aldrich, 200 mg/kg BID x 14 days), or vehicle using a volume of 10 ml/kg. At 35 days post-infection mice were euthanized using an overdose of isoflurane; worms were recovered from the pleural cavity by pleural lavage, counted, sexed and staged for development into L4 and adult worms based on the difference of the buccal capsule through microscopic examination. Female worms were measured for length (mm) as a marker for development as previously described. Data were distributed in a non-parametric fashion, median and interquartile ranges are presented. For comparing the length of the female worms, the Mann-Whitney-U test was used to calculate statistical differences either against the vehicle treated or gold standard groups.
Molecule,C*8hr [2],AUC* parent [2],C*8hr/ EC50 [2],AUC*/EC50 [2],AUC* TylA (metabolite) [2],improvement in plasma drug levels (AUC) over TylA ([2]; oral dosing),activity against Wolbachia [1],also measured
"CC[C@H]1OC(=O)C[C@@H](O)[C@H](C)[C@@H](O[C@@H]2O[C@H](C)[C@@H](O[C@H]3C[C@@](C)(O)[C@@H](O)[C@H](C)O3)[C@H](N(C)C)[C@H]2O)[C@@H](CC=O)C[C@@H](C)C(=O)/C=C/C(C)=C/[C@@H]1CO[C@@H]1O[C@H](C)[C@@H](O)[C@@H](OC)[C@H]1OC [1 (TylA), Tylosin A]",0.5 ng/mL per mg/kg,9.6 ng-hr/ml per mg/kg,0.02 ng/ml/nM per mg/kg,0.34 ng-hr/ml/nM per mg/kg,,,,"EC50 ([1]; C6/36, Wolbachia-infected insect cells, geometric mean (N), each N a duplicate measurement): 28 nM; drug levels IP arm relative to PO ([3]; BALB/c mice, 100 mg/kg IP or PO): > 30 fold; permeability (MDR-MDCK monolayer): < 0.1X10^-6 cm/sec; length of recovered worms (Litomosoides sigmodontis; 200 mg/kg IP BID x 7 days): notably shorter than controls; length of recovered worms (Litomosoides sigmodontis; 200 mg/kg PO BID x 7 days): minimal response"
CCCCC(=O)OC1C(OC2C(CC=O)CC(C)C(=O)C=CC(C)=CC(COC3OC(C)C(O)C(OC)C3OC)C(CC)OC(=O)CC(O)C2C)OC(C)C(OC2CC(C)(O)C(O)C(C)O2)C1N(C)C (stereo not shown) [Compound 2c],2.5 ng/mL per mg/kg,58 ng-hr/ml per mg/kg,0.04 ng/ml/nM per mg/kg,0.89 ng-hr/ml/nM per mg/kg,1.2 ng-hr/ml per mg/kg,6 fold,,potency-weighted 8-hr drug level (C8hr/dose/EC50) relative to TylA ([2]; oral dosing): doubles; potency-weighted AUC (AUC*/EC50) relative to TylA ([2]; oral dosing): ~ 2.6 fold; metabolic stability of substituent / species observed in plasma ([2]; oral pharmacokinetic study): relatively metabolically stable
CCC1OC(=O)CC(O)C(C)C(OC2OC(C)C(OC3CC(C)(O)C(OC(=O)N(CC)CC)C(C)O3)C(N(C)C)C2OC(=O)C(C)C)C(CC=O)CC(C)C(=O)C=CC(C)=CC1COC1OC(C)C(O)C(OC)C1OC (stereo not shown) [Compound 4d],30 ng/mL per mg/kg,420 ng-hr/ml per mg/kg,1.25 ng/ml/nM per mg/kg,17.5 ng-hr/ml/nM per mg/kg,1.4 ng-hr/ml per mg/kg,40–50 fold,,drug levels relative to 2'-OH partners 5c and 5d ([2]; oral dosing): more than 10 fold
CC[C@H]1OC(=O)C[C@@H](O)[C@H](C)[C@@H](O[C@@H]2O[C@H](C)[C@@H](O[C@H]3C[C@@](C)(O)[C@@H](OCc4ccc(F)cc4)[C@H](C)O3)[C@H](N(C)C)[C@H]2OC(=O)C(C)C)[C@@H](CC=O)C[C@@H](C)C(=O)/C=C/C(C)=C/[C@@H]1CO[C@@H]1O[C@H](C)[C@@H](O)[C@@H](OC)[C@H]1OC [Compound 4e],30 ng/mL per mg/kg,510 ng-hr/ml per mg/kg,1.03 ng/ml/nM per mg/kg,17.6 ng-hr/ml/nM per mg/kg,<0.6 ng-hr/ml per mg/kg,40–50 fold,,drug levels relative to 2'-OH partners 5c and 5d ([2]; oral dosing): more than 10 fold
CCCCC(=O)OC1C(C)OC(OC2C(C)OC(OC3C(CC=O)CC(C)C(=O)C=CC(C)=CC(COC4OC(C)C(O)C(OC)C4OC)C(CC)OC(=O)CC(O)C3C)C(O)C2N(C)C)CC1(C)O (stereo not shown) [Compound 5a],,<0.6 ng-hr/ml per mg/kg,,,30 ng-hr/ml per mg/kg,,,"potency improvement (EC50) over TylA ([1]; EC50 lower than parent TylA): 25 fold; parent ester in plasma ([3]; mice, oral, any time point): no sign of parent is observed; increase in oral drug levels upon 4""-acylation ([3]; mice, measured drug is deacylated metabolite TylA): ~ 3 fold"
CCC1OC(=O)CC(O)C(C)C(OC2OC(C)C(OC3CC(C)(O)C(OC(=O)C(C)(C)C)C(C)O3)C(N(C)C)C2O)C(CC=O)CC(C)C(=O)C=CC(C)=CC1COC1OC(C)C(O)C(OC)C1OC (stereo not shown) [Compound 5b],3.0 ng/mL per mg/kg,58 ng-hr/ml per mg/kg,0.56 ng/ml/nM per mg/kg,10.7 ng-hr/ml/nM per mg/kg,<0.6 ng-hr/ml per mg/kg,6 fold,,"potency-weighted AUC (AUC*/EC50) relative to TylA ([2]; oral dosing): 30 fold; deacylated product TylA as share of total circulating drug ([2]; rat pharmacokinetic study, oral): < 1%"
CO[C@@H]1[C@@H](O[C@@H]2O[C@H](C)[C@@H](O[C@H]3C[C@@](C)(O)[C@@H](OC(=O)CC(C)C)[C@H](C)O3)[C@H](N(C)C)[C@H]2O)[C@@H](CC=O)C[C@@H](C)[C@@H](O)/C=C/C=C/C[C@@H](C)OC(=O)C[C@H]1O [leucomycin],,,,,,,inactive,
CCC(=O)O[C@@H]1CC(=O)O[C@H](C)C/C=C/C=C/[C@H](O)[C@H](C)C[C@H](CC=O)[C@H](O[C@@H]2O[C@H](C)[C@@H](O[C@H]3C[C@@](C)(O)[C@@H](OC(=O)CC)[C@H](C)O3)[C@H](N(C)C)[C@H]2O)[C@H]1OC [midecamycin],,,,,,,inactive,
josmycin,,,,,,,inactive,
spiramycin,,,,,,,inactive,
